What all share (experiment): inhibition of tumour cell growth, NCI panel, 48 h
The subject of test [1] is SNB-75 CNS.
The subject of test [2] is K-562 leukemia.
Test [3] relates to MDA-MB-435.
Test [4] relates to NCI-H226 lung.
In test [5] the test system is HCT-116 colon.
Test [6] has as its system SK-OV-3 ovarian.
For test [7], the system named is TK-10 renal.
Test [8] has as its system MCF7 breast.
Test [9] deals with MDA-MB-231 breast.
Test [10] deals with 786-0 renal.

Molecules are shown by their SMILES.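 In this assay, cells in 96-well plates receive the compound at five concentrations for 48 hours. Endpoints are linearly interpolated between the surrounding concentrations. GI50 = concentration required for 50% inhibition of growth. Definition used: TGI = concentration required for complete inhibition of growth.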

Results on seven molecules are retold here after PubChem BioAssay (NCI).

`CCN(Cc1ccc(Cl)s1)c1ccc(CO)c(Cl)c1`: the GI50 was 2180 nM in test [1]; 575 nM in test [2]; 20.3 µM in test [3]; 91.5 nM in test [4]; 46.4 nM in test [5]; 2740 nM in [6]. Further, the GI50 was 45.2 nM in test [7], 119 nM in [8], 8.74 µM in [9] and 2990 nM in [10]. Besides, the TGI was 21.6 µM in [1]; above 53.9 µM in [2]; 59 µM in test [3]; 0.232 µM in test [4]; 11.3 µM in [5]; 18.2 µM in [6]. The TGI in [7] worked out at 0.221 µM; in test [8], 12.3 µM; in test [9], 26.4 µM; in test [10], 21.2 µM.
`O=C1NC(=O)C(c2cccc(Cl)c2)=C1Nc1ccc(O)c(Cl)c1`: the GI50 is 6960 nM in [1]; 11700 nM in [2]; 3.28 µM in test [3]; 12000 nM in test [4]; 9600 nM in test [5]; 6620 nM in test [6]. The GI50 is 8660 nM in test [7], 10400 nM in test [8], 16.1 µM in test [9] and 12100 nM in test [10]. Moreover, the TGI in test [1] is above 20.4 µM; in test [2], above 25 µM; in [3], above 25 µM; in test [4] it was above 25 µM; in test [5], above 25 µM; in test [6], 16.2 µM. Besides, the TGI in test [7], in test [8], in [9] and in test [10] was above 25 µM in each case.
On to `CCN1C(=O)N(CC)C2C1NN=c1s/c(=C\c3ccccc3Br)c(=O)n12` (stereo not drawn), for which the GI50 was 26.2 nM in [1]; 32.9 nM in [2]; below 0.0137 µM in test [3]; 132 nM in test [4]; 30.2 nM in test [5]; 66.7 nM in test [6]. Besides, the GI50 in test [7] was 12500 nM; in test [8] it was 32.8 nM; in test [9], 0.0347 µM; in test [10], 52.5 nM. Further, the TGI in [1] is 2.22 µM; in [2], above 100 µM; in test [3], 0.0416 µM; in test [4] it was 4.98 µM; in [5], 11.6 µM; in [6], above 100 µM. The TGI in test [7] is above 100 µM; in test [8], 16.5 µM; in [9] it was 11.4 µM; in test [10] it was 37 µM.
Regarding `O=C(Nc1cccc(Nc2ncc(Br)c(NCCc3cnc[nH]3)n2)c1)N1CCCC1`, the GI50 is 1280 nM in test [1]; 2840 nM in test [2]; 2.62 µM in test [3]; 771 nM in test [4]; 1560 nM in test [5]; 4950 nM in test [6]. The GI50 in test [7] was 3870 nM; in test [8], 1190 nM; in [9], 4.07 µM; in test [10], 9360 nM. Also, the TGI was 4.96 µM in test [1]; above 64.9 µM in [2]; 18.5 µM in test [3]; 4.74 µM in test [4]; above 60 µM in test [5]; 32.4 µM in test [6]. The TGI in test [7] was 20 µM; in test [8], 17.7 µM; in [9], 29.2 µM; in test [10], 32.6 µM.
For the molecule `Cn1cncc1CC1COC(=O)C1C(O)c1ccccc1` (stereo not drawn), the TGI in [1], in [2], in [3], in test [4], in test [5] and in test [6] was above 100 µM in each case. Moreover, the TGI in [7], in test [8], in test [9] and in [10] was above 100 µM in each case.
With `CC(C)(C)c1ccc(C(=O)Nc2sc3c(c2C(N)=O)CCC(=O)C3)cc1`, the GI50 in test [1] is 1110 nM; in test [2], 127 nM; in test [3], 1.67 µM; in test [4], 1530 nM; in [5], 287 nM; in test [6], 2810 nM. Also, the GI50 was 1420 nM in test [7], 402 nM in [8], 0.999 µM in test [9] and 1860 nM in test [10]. Further, the TGI came to 2.53 µM in [1]; 3.7 µM in test [3]; 3.43 µM in test [4]; 1.29 µM in test [5]; 8.75 µM in test [6]; 4.77 µM in [7]. Moreover, the results for the TGI in [8], in test [9] and in test [10] were 2.96 µM, 2.63 µM and 5.07 µM, respectively.
On to `BrCc1ccc(CBr)cc1`, for which the GI50 is 18800 nM in [1]; 7100 nM in test [2]; 5.56 µM in test [3]; 5370 nM in test [4]; 5400 nM in [5]; 477 nM in test [6]. The GI50 in test [7] is 1580 nM; in test [8], 1890 nM; in test [9], 13.9 µM; in [10], 2590 nM. Moreover, the TGI in test [1] is above 100 µM; in test [2], above 20.6 µM; in [3] it was 15.6 µM; in test [4], 15.6 µM; in [6] it was 7.24 µM; in [7], 5.99 µM. Further, the TGI in test [8] is above 21.7 µM; in [9] it was 35.1 µM; in [10], 8.63 µM.
